Results taken from patent publication US20200199127A1, “(HETERO)ARYLALKYLAMINO-PYRAZOLOPYRIDAZINE DERIVATIVES HAVING MULTIMODAL ACTIVITY AGAINST PAIN” (priority 2017, published 2020).

Key:
[1] = biological target: Human α2δ-1 subunit of Cav2.2 calcium channel (Homo sapiens, UniProt P54289); experiment: Human α2δ-1 subunit of Cav2.2 calcium channel assay, [3H]-Gabapentin binding; conditions: human α2δ-1 enriched membranes, 15 nM [3H]-Gabapentin; Ki as class symbol
Procedure: Human α2δ-1 Subunit of Cav2.2 Calcium Channel Assay
Human α2δ-1 enriched membranes (2.5 μg) were incubated with 15 nM of radiolabeled [3H]-Gabapentin in assay buffer containing Hepes-KOH 10 mM, pH 7.4. NSB (non specific binding) was measured by adding 10 μM pregabalin. The binding of the test compound was measured at five different concentrations. After 60 min incubation at 27° C., binding reaction was terminated by filtering through Multiscreen GF/C (Millipore) presoaked in 0.5% polyethyleneimine in Vacuum Manifold Station, followed by 3 washes with ice-cold filtration buffer containing 50 mM Tris-HCl, pH 7.4. Filter plates were dried at 60° C. for 1 hour and 30 μl of scintillation cocktail were added to each well before radioactivity reading. Readings were performed in a Trilux 1450 Microbeta radioactive counter (Perkin Elmer).

[2] = biological target: Human norepinephrine transporter (NET) (Homo sapiens, UniProt P23975); experiment: Binding assay to human norepinephrine transporter (NET), [3H]-Nisoxetin; conditions: human NET enriched membranes, 5 nM [3H]-Nisoxetin; Ki as class symbol
Procedure: Binding Assay to Human Norepinephrine Transporter (NET).
Human norepinephrine transporter (NET) enriched membranes (5 μg) were incubated with 5 nM of radiolabeled [3H]-Nisoxetin in assay buffer containing 50 mM Tris-HCl, 120 mM NaCl, 5 mM KCl, pH 7.4.
NSB (non specific binding) was measured by adding 10 μM of desipramine. The binding of the test compound was measured at five different concentrations.. After 60 min incubation at 4° C., binding reaction was terminated by filtering through Multiscreen GF/C (Millipore) presoaked in 0.5% polyethyleneimine in Vacuum Manifold Station, followed by 3 washes with ice-cold filtration buffer containing 50 mM Tris-HCl, 0.9% NaCl, pH 7.4.
Filter plates were dried at 60° C. for 1 hour and 30 μl of scintillation cocktail were added to each well before radioactivity reading.

Sequence of Human norepinephrine transporter (NET) (P23975 whole entry): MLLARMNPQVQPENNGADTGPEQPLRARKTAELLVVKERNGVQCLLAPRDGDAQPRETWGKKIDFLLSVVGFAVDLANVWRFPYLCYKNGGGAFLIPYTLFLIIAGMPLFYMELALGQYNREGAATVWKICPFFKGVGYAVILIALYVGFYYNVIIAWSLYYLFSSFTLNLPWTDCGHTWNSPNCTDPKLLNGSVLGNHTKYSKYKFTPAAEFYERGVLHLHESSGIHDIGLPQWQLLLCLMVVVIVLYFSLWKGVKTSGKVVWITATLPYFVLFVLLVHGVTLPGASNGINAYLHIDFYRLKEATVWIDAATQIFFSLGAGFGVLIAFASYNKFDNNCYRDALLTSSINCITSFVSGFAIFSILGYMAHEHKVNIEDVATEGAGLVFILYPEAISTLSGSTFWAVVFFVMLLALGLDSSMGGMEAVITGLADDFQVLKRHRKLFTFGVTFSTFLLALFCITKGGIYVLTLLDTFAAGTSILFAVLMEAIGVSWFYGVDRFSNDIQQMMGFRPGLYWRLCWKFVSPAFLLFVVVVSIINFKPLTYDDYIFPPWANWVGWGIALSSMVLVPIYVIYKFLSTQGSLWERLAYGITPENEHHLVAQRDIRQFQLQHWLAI
Sequence of Human α2δ-1 subunit of Cav2.2 calcium channel (P54289 25-1103): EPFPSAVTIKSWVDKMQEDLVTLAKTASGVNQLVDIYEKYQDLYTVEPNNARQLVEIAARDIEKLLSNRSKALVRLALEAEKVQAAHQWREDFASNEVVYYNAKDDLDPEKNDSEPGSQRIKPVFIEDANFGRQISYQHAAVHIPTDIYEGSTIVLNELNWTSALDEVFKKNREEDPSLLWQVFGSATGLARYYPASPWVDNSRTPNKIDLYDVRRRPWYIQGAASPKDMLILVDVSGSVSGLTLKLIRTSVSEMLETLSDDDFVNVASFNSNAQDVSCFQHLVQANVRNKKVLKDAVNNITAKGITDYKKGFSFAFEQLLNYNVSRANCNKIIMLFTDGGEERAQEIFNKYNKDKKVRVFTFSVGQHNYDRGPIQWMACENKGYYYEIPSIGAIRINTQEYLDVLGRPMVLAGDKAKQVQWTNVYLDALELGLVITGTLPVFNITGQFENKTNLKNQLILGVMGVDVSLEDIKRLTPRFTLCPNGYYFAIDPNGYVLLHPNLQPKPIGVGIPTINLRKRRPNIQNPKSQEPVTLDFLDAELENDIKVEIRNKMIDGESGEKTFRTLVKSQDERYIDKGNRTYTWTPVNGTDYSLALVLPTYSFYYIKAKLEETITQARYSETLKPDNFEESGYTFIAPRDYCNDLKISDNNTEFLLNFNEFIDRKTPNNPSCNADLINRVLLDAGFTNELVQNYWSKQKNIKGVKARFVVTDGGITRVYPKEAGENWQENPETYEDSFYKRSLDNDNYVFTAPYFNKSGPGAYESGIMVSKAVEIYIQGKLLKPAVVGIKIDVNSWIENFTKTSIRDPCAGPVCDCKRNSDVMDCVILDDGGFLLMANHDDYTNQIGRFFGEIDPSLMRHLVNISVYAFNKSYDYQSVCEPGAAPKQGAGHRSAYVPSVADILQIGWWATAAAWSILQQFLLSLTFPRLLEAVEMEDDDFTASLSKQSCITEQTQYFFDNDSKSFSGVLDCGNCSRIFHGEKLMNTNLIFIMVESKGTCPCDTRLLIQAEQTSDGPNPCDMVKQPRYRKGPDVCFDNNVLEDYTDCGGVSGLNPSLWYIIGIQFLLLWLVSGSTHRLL

| Ki [1] [nM] | Ki [2] [nM] | Structure (SMILES) |
| --- | --- | --- |
| 100 to 500 | 100 to 500 | CCOc1ccc(-n2nc3c(N(C)CCCc4ccccc4)nnc(C)c3c2C)c(F)c1 [Example 4, 2-(4-ethoxy-2-fluorophenyl)-N,3,4-trimethyl-N-(3-phenylpropyl)-2H-pyrazolo[3,4-d]pyridazin-7-amine] |
| 500 to 5000 | > 1000 | CCOc1ccc(-n2nc3c(N(C)C(CCO)c4ccccc4)nnc(C)c3c2C)c(F)c1 (stereo not shown) [Example 54, 3-((2-(4-ethoxy-2-fluorophenyl)-3,4-dimethyl-2H-pyrazolo[3,4-d]pyridazin-7-yl)(methyl)amino)-3-phenylpropan-1-ol] |
| 100 to 500 | 100 to 500 | CCOc1ccc(-n2nc3c(NCC(CO)Cc4ccccc4)nnc(C)c3c2C)c(F)c1 (stereo not shown) [Example 12, 2-benzyl-3-((2-(4-ethoxy-2-fluorophenyl)-3,4-dimethyl-2H-pyrazolo[3,4-d]pyridazin-7-yl)amino)propan-1-ol] |
| 100 to 500 | > 1000 | CCOc1ccc(-n2nc3c(NCC(O)Cc4ccccc4)nnc(C)c3c2C)c(F)c1 (stereo not shown) [Example 19, 1-((2-(4-ethoxy-2-fluorophenyl)-3,4-dimethyl-2H-pyrazolo[3,4-d]pyridazin-7-yl)amino)-3-phenylpropan-2-ol] |
| 100 to 500 | 500 to 1000 | CCOc1ccc(-n2nc3c(NCc4ccccc4)nnc(C)c3c2C)c(F)c1 [Example 13, N-benzyl-2-(4-ethoxy-2-fluorophenyl)-3,4-dimethyl-2H-pyrazolo[3,4-d]pyridazin-7-amine] |
| 100 to 500 | > 1000 | CCOc1ccc(-n2nc3c(NCCc4ccccn4)nnc(C)c3c2C)c(F)c1 [Example 15, 2-(4-ethoxy-2-fluorophenyl)-3,4-dimethyl-N-(2-(pyridin-2-yl)ethyl)-2H-pyrazolo[3,4-d]pyridazin-7-amine] |
| 100 to 500 | > 1000 | CCOc1ccc(-n2nc3c(N(C)CC(O)c4ccccc4)nnc(C)c3c2C)c(F)c1 (stereo not shown) [Example 5, 2-((2-(4-ethoxy-2-fluorophenyl)-3,4-dimethyl-2H-pyrazolo[3,4-d]pyridazin-7-yl)(methyl)amino)-1-phenylethanol] |
| ≥ 5000 | 500 to 1000 | CCOc1ccc(-n2nc3c(N(C)CCCc4ccccc4O)nnc(C)c3c2C)c(F)c1 [Example 21, 2-(3-((2-(4-ethoxy-2-fluorophenyl)-3,4-dimethyl-2H-pyrazolo[3,4-d]pyridazin-7-yl)(methyl)amino)propyl)phenol] |
| 100 to 500 | > 1000 | CCOc1ccc(-n2nc3c(NCc4ccccn4)nnc(C)c3c2C)c(F)c1 [Example 14, 2-(4-ethoxy-2-fluorophenyl)-3,4-dimethyl-N-(pyridin-2-ylmethyl)-2H-pyrazolo[3,4-d]pyridazin-7-amine] |

Further lines, the compound ahead of its results:

| Structure (SMILES) | Ki [1] [nM] | Ki [2] [nM] |
| --- | --- | --- |
| CCOc1ccc(-n2nc3c(N(C)Cc4cnccn4)nnc(C)c3c2C)c(F)c1 [Example 35, 2-(4-ethoxy-2-fluorophenyl)-N,3,4-trimethyl-N-(pyrazin-2-ylmethyl)-2H-pyrazolo[3,4-d]pyridazin-7-amine] | 100 to 500 | > 1000 |
| CCOc1ccc(-n2nc3c(N(C)Cc4ncc[nH]4)nnc(C)c3c2C)c(F)c1 [Example 25, N-((1H-imidazol-2-yl)methyl)-2-(4-ethoxy-2-fluorophenyl)-N,3,4-trimethyl-2H-pyrazolo[3,4-d]pyridazin-7-amine] | 500 to 5000 | > 1000 |
| CCOc1ccc(-n2nc3c(N(C)Cc4cc(OC)ccn4)nnc(C)c3c2C)c(F)c1 [Example 31, 2-(4-ethoxy-2-fluorophenyl)-N-((4-methoxypyridin-2-yl)methyl)-N,3,4-trimethyl-2H-pyrazolo[3,4-d]pyridazin-7-amine] | 100 to 500 | > 1000 |
| CCOc1ccc(-n2nc3c(N(C)Cc4ccncn4)nnc(C)c3c2C)c(F)c1 [Example 36, 2-(4-ethoxy-2-fluorophenyl)-N,3,4-trimethyl-N-(pyrimidin-4-ylmethyl)-2H-pyrazolo[3,4-d]pyridazin-7-amine] | 100 to 500 | > 1000 |
| CCOc1ccc(-n2nc3c(N(C)CCc4ccccn4)nnc(C)c3c2C)c(F)c1 [Example 16, 2-(4-ethoxy-2-fluorophenyl)-N,3,4-trimethyl-N-(2-(pyridin-2-yl)ethyl)-2H-pyrazolo[3,4-d]pyridazin-7-amine] | 100 to 500 | > 1000 |
| CCOc1ccc(-n2nc3c(N(CC)Cc4ccccn4)nnc(C)c3c2C)c(F)c1 [Example 40, 2-(4-ethoxy-2-fluorophenyl)-N-ethyl-3,4-dimethyl-N-(pyridin-2-ylmethyl)-2H-pyrazolo[3,4-d]pyridazin-7-amine] | 500 to 5000 | 100 to 500 |
| CCOc1ccc(-n2nc3c(NCc4cc(C)ccn4)nnc(C)c3c2C)c(F)c1 [Example 22, 2-(4-ethoxy-2-fluorophenyl)-3,4-dimethyl-N-((4-methylpyridin-2-yl)methyl)-2H-pyrazolo[3,4-d]pyridazin-7-amine] | 100 to 500 | > 1000 |
| CCOc1ccc(-n2nc3c(N(C)Cc4ccn[nH]4)nnc(C)c3c2C)c(F)c1 [Example 28, N-((1H-pyrazol-5-yl)methyl)-2-(4-ethoxy-2-fluorophenyl)-N,3,4-trimethyl-2H-pyrazolo[3,4-d]pyridazin-7-amine] | 100 to 500 | > 1000 |
| CCOc1ccc(-n2nc3c(N(CCO)Cc4ccccn4)nnc(C)c3c2C)c(F)c1 [Example 56, 2-((2-(4-ethoxy-2-fluorophenyl)-3,4-dimethyl-2H-pyrazolo[3,4-d]pyridazin-7-yl)(pyridin-2-ylmethyl)amino)ethanol] | 500 to 5000 | 500 to 1000 |
| CCOc1ccc(-n2nc3c(N(C)Cc4cscn4)nnc(C)c3c2C)c(F)c1 [Example 29, 2-(4-ethoxy-2-fluorophenyl)-N,3,4-trimethyl-N-(thiazol-4-ylmethyl)-2H-pyrazolo[3,4-d]pyridazin-7-amine] | 100 to 500 | > 1000 |
| CCOc1ccc(-n2nc3c(N(C)Cc4ncccc4F)nnc(C)c3c2C)c(F)c1 [Example 33, 2-(4-ethoxy-2-fluorophenyl)-N-((3-fluoropyridin-2-yl)methyl)-N,3,4-trimethyl-2H-pyrazolo[3,4-d]pyridazin-7-amine] | 100 to 500 | 100 to 500 |
| CCOc1ccc(-n2nc3c(N(C)Cc4ccc(C)cn4)nnc(C)c3c2C)c(F)c1 [Example 34, 2-(4-ethoxy-2-fluorophenyl)-N,3,4-trimethyl-N-((5-methylpyridin-2-yl)methyl)-2H-pyrazolo[3,4-d]pyridazin-7-amine] | 100 to 500 | > 1000 |
| COc1ccc(-n2nc3c(N(C)Cc4ccccn4)nnc(C)c3c2C)cc1 [Example 48, 2-(4-methoxyphenyl)-N,3,4-trimethyl-N-(pyridin-2-ylmethyl)-2H-pyrazolo[3,4-d]pyridazin-7-amine] | 500 to 5000 | > 1000 |
| COc1ccc(-n2nc3c(N(C)Cc4ccccn4)nnc(C)c3c2C)c(F)c1 [Example 45, 2-(2-fluoro-4-methoxyphenyl)-N,3,4-trimethyl-N-(pyridin-2-ylmethyl)-2H-pyrazolo[3,4-d]pyridazin-7-amine] | ≥ 5000 | > 1000 |
| CCOc1ccc(-n2nc3c(N(C)Cc4ccccn4)nnc(C)c3c2C)c(F)c1 [Example 9, 2-(4-ethoxy-2-fluorophenyl)-N,3,4-trimethyl-N-(pyridin-2-ylmethyl)-2H-pyrazolo[3,4-d]pyridazin-7-amine] | 100 to 500 | 500 to 1000 |
| CCOc1ccc(-n2nc3c(N(C)Cc4ncccc4C)nnc(C)c3c2C)c(F)c1 [Example 32, 2-(4-ethoxy-2-fluorophenyl)-N,3,4-trimethyl-N-((3-methylpyridin-2-yl)methyl)-2H-pyrazolo[3,4-d]pyridazin-7-amine] | 100 to 500 | 100 to 500 |
| CCOc1ccc(-n2nc3c(N(C)Cc4ccncc4)nnc(C)c3c2C)c(F)c1 [Example 11, 2-(4-ethoxy-2-fluorophenyl)-N,3,4-trimethyl-N-(pyridin-4-ylmethyl)-2H-pyrazolo[3,4-d]pyridazin-7-amine] | 100 to 500 | > 1000 |
| CCOc1ccc(-n2nc3c(N(C)Cc4cnc[nH]4)nnc(C)c3c2C)c(F)c1 [Example 24, N-((1H-imidazol-5-yl)methyl)-2-(4-ethoxy-2-fluorophenyl)-N,3,4-trimethyl-2H-pyrazolo[3,4-d]pyridazin-7-amine] | 100 to 500 | > 1000 |
| CCOc1ccc(-n2nc3c(N(C)Cc4cccc(OC)n4)nnc(C)c3c2C)c(F)c1 [Example 30, 2-(4-ethoxy-2-fluorophenyl)-N-((6-methoxypyridin-2-yl)methyl)-N,3,4-trimethyl-2H-pyrazolo[3,4-d]pyridazin-7-amine] | 100 to 500 | 500 to 1000 |
| CCOc1ccc(-n2nc3c(N(C)Cc4ccon4)nnc(C)c3c2C)c(F)c1 [Example 27, 2-(4-ethoxy-2-fluorophenyl)-N-(isoxazol-3-ylmethyl)-N,3,4-trimethyl-2H-pyrazolo[3,4-d]pyridazin-7-amine] | 500 to 5000 | > 1000 |
